This is an account of results in patent publication US11850247B2, “Antiviral compounds” (REGENTS OF THE UNIVERSITY OF MINNESOTA, priority 2020, dated 2023).

SMILES strings stand for the structures.

The test system of one series is HIV-1. Description: Anti-HIV-1 activity in TZM-GFP cells (viral LTR-activated GFP expression). It is filed as cell-based. The following applies: for inhibition at 2 µM: Human immunodeficiency virus 1, 2 μM compound; for inhibition at 2 µM / inhibition at 20 µM: HIV-1 MOI=1; for inhibition at 20 µM: Human immunodeficiency virus 1, 20 μM compound; for EC50: Human immunodeficiency virus 1, HIV-1 strain MOI=1, GFP positive cells counted after 48 hours. The procedure: The potency of HIV-1 inhibition by a compound was based on its inhibitory effect on viral LTR-activated GFP expression compared with that of compound-free (DMSO) controls. Briefly, TZM-GFP cells were plated at density of 1×10^4 cells per well in a 96-well plate. 24 hours later, media was replaced with increasing concentrations of compound. 24 hours post treatment, cells were exposed to an HIV-1 strain (MOI=1).
(§1) The cytotoxicity of each compound was also determined in TZM-GFP cells. Cells were plated at a density of 1×10^4 cells per well in a 96-well plate and were continuously exposed to increasing concentrations of a compound for 72 hours. The number of viable cells in each well was determined using a Cell Proliferation Kit II (XTT), and 50% cytotoxicity concentration (CC50) values were determined. All the cell-based assays were conducted in duplicate and in at least two independent experiments. For the EC50 and CC50 dose responses, values were plotted in GraphPad Prism 5 and analyzed with the log (inhibitor) vs. normalized response-variable slope equation. Final values were calculated in each independent assay and the average values were determined. Statistical analysis (calculation of standard deviation) was performed by using Microsoft Excel.

Series [1] can be described thus: Cytotoxicity in TZM-GFP cells (XTT). The format is cell-based. The following applies: human, 72 hours exposure, XTT. The procedure:
as §1
(In general: Tetrazolium dyes change colour on reduction, which living cells bring about.)

Series [2] concerns the target covalently-crosslinked hexameric CA A14C/E45C/W184A/M185A (CA121) (Human immunodeficiency virus type 1 group M subtype B, UniProt P12493, A146C/E177C/M317A/W316A). The experiment in a line: Thermal shift assay (TSA), CA hexamer stability. It is filed as binding, HIV-1. The following applies: compound 20 μM, ΔTm=Tm−T0 vs DMSO.

On to `Cc1cccc2c1NC(=O)C2CC(=O)N[C@@H](Cc1ccccc1)C(=O)N(C)c1ccccc1` (stereo partly drawn) [Example 1, (2S)—N-methyl-2-(2-(7-methyl-2-oxoindolin-3-yl)acetamido)-N,3-diphenylpropanamide], for which, in the series on HIV-1, at 2 µM the inhibition was 0% and the inhibition (usually the relative decrease from the control value, in per cent) at 20 µM was determined as 91%. In addition, in series [1], the CC50 (in general, the concentration that lowers cell viability or growth by half) at 72 h is more than 50 µM. In series [2], the “TSA ΔTm (° C.)” value was −1.2 °C.
Taken in the same sequence, the figures for `Cc1cccc2c1NC(=O)C2CC(=O)N[C@@H](Cc1ccccc1)C(=O)N(C)c1ccc(Cl)cc1` (stereo partly drawn) [Example 2, (2S)—N-(4-chlorophenyl)-N-methyl-2-(2-(7-methyl-2-oxoindolin-3-yl)acetamido)-3-phenylpropanamide] were 17%, 96%, approximately 50 µM and −0.4 °C.
Regarding `Cc1cccc2c1NC(=O)C2CC(=O)N[C@@H](Cc1ccccc1)C(=O)N(C)c1cccc(Cl)c1` (stereo partly drawn) [Example 3, (2S)—N-(3-chlorophenyl)-N-methyl-2-(2-(7-methyl-2-oxoindolin-3-yl)acetamido)-3-phenylpropanamide], the EC50 (usually the concentration needed to bring the measured effect to its halfway point) in the series with HIV-1 amounted to 3.3 ± 0.3 µM. The same compound came in with a CC50 at 72 h in series [1] of more than 100 µM. Also, the “TSA ΔTm (° C.)” value in series [2] is −1.7 °C.
Consider `Cc1cccc2c1NC(=O)C2CC(=O)N[C@@H](Cc1ccccc1)C(=O)N(C)c1cccc(F)c1` (stereo partly drawn) [Example 4, (2S)—N-(3-fluorophenyl)-N-methyl-2-(2-(7-methyl-2-oxoindolin-3-yl)acetamido)-3-phenylpropanamide], for which, in the series with HIV-1, the inhibition at 2 µM was found to be 0% and the inhibition at 20 µM is 93%. This compound displayed a CC50 at 72 h in series [1] of more than 50 µM. Besides, in series [2], the “TSA ΔTm (° C.)” value was −0.9 °C.
The compound `Cc1ccc(C)c2c1NC(=O)C2CC(=O)N[C@@H](Cc1ccccc1)C(=O)N(C)c1ccccc1` (stereo partly drawn) [Example 5, (2S)-2-(2-(4,7-dimethyl-2-oxoindolin-3-yl)acetamido)-N-methyl-N,3-diphenylpropanamide] displayed an EC50 in the series with HIV-1 of 4.9 ± 0.3 µM. In addition, the CC50 at 72 h in series [1] was more than 100 µM. In addition, in series [2], the “TSA ΔTm (° C.)” value is −1.8 °C.
Taken in the same sequence, the figures for `Cc1ccc(C)c2c1NC(=O)C2CC(=O)N[C@@H](Cc1ccccc1)C(=O)N(C)c1ccc(F)cc1` (stereo partly drawn) [Example 6, (2S)-2-(2-(4,7-dimethyl-2-oxoindolin-3-yl)acetamido)-N-(4-fluorophenyl)-N-methyl-3-phenylpropanamide] were 5.4 ± 0.5 µM, more than 100 µM and −1.7 °C.
`Cc1ccc(C)c2c1NC(=O)C2CC(=O)N[C@@H](Cc1ccccc1)C(=O)N(C)c1cccc(F)c1` (stereo partly drawn) [Example 7, (2S)-2-(2-(4,7-dimethyl-2-oxoindolin-3-yl)acetamido)-N-(3-fluorophenyl)-N-methyl-3-phenylpropanamide] yielded an EC50 in the series on HIV-1 of 5.2 ± 0.4 µM. The CC50 at 72 h in series [1] turned out to be 60 ± 6 µM. Moreover, the “TSA ΔTm (° C.)” value in series [2] is −1.8 °C.
Taken in the same sequence, the figures for `Cc1ccc(C)c2c1NC(=O)C2CC(=O)N[C@@H](Cc1ccccc1)C(=O)N(C)c1ccc(Cl)cc1` (stereo partly drawn) [Example 8, (2S)—N-(4-chlorophenyl)-2-(2-(4,7-dimethyl-2-oxoindolin-3-yl)acetamido)-N-methyl-3-phenylpropanamide] were 2.8 ± 0.1 µM, 63 ± 13 µM and −1.3 °C.
The corresponding values for `Cc1ccc(C)c2c1NC(=O)C2CC(=O)N[C@@H](Cc1ccccc1)C(=O)N(C)c1cccc(Cl)c1` (stereo partly drawn) [Example 9, (2S)—N-(3-chlorophenyl)-2-(2-(4,7-dimethyl-2-oxoindolin-3-yl)acetamido)-N-methyl-3-phenylpropanamide] are 2.1 ± 0.2 µM, 43 ± 2 µM and −2.4 °C.
In the series on HIV-1, `CN(C(=O)[C@H](Cc1ccccc1)NC(=O)Cc1ccc2ccccc2c1)c1ccccc1` [Example 10, (S)—N-methyl-2-(2-(naphthalen-2-yl)acetamido)-N,3-diphenylpropanamide] showed an inhibition at 2 µM of 40% and an inhibition at 20 µM of 98%. This compound registered a CC50 at 72 h in series [1] of less than 50 µM. In addition, the “TSA ΔTm (° C.)” value in series [2] worked out at 4.8 °C.
Consider `Cc1ccc(N(C)C(=O)[C@H](Cc2ccccc2)NC(=O)Cc2ccc3ccccc3c2)cc1` [Example 11, (S)—N-methyl-2-(2-(naphthalen-2-yl)acetamido)-3-phenyl-N-(p-tolyl)propanamide], for which, in the series with HIV-1, the EC50 worked out at 0.99 ± 0.005 µM. Further, in series [1], the CC50 at 72 h is less than 50 µM. Besides, in series [2], the “TSA ΔTm (° C.)” value was found to be 6.4 °C.
In the case of `CN(C(=O)[C@H](Cc1ccccc1)NC(=O)Cc1ccc2ccccc2c1)c1ccc(Cl)cc1` [Example 12, (S)—N-(4-chlorophenyl)-N-methyl-2-(2-(naphthalen-2-yl)acetamido)-3-phenylpropanamide], the EC50 with HIV-1 was determined as 0.63 ± 0.02 µM. In addition, the CC50 at 72 h in series [1] is less than 50 µM. For the same compound, the “TSA ΔTm (° C.)” value in series [2] is 7.0 °C.
As to `CN(C(=O)[C@H](Cc1ccccc1)NC(=O)Cc1ccc2ccccc2c1)c1cccc(Cl)c1` [Example 13, (S)—N-(3-chlorophenyl)-N-methyl-2-(2-(naphthalen-2-yl)acetamido)-3-phenylpropanamide], in the series on HIV-1, the inhibition at 2 µM was 0% and the inhibition at 20 µM turned out to be 94%. Moreover, the CC50 at 72 h in series [1] was less than 50 µM. Besides, in series [2], the “TSA ΔTm (° C.)” value was found to be 4.3 °C.
The corresponding values for `CN(C(=O)[C@H](Cc1ccccc1)NC(=O)Cc1ccc2ccccc2c1)c1cccc(F)c1` [Example 14, (S)—N-(3-fluorophenyl)-N-methyl-2-(2-(naphthalen-2-yl)acetamido)-3-phenylpropanamide] are 0%, 97%, less than 50 µM and 5.2 °C.
Compound `O=C(Cc1c[nH]c2ccccc12)N[C@@H](Cc1ccccc1)c1ncccc1-c1ccc(Cl)cc1` [Example 54, (S)-2-(1H-indol-3-yl)-N-(2-phenyl-1-(3-(4-chlorophenyl)pyridin-2-yl)ethyl)acetamide] showed an EC50 with HIV-1 of 0.79 ± 0.25 µM. For the same compound, in series [2], the “TSA ΔTm (° C.)” value turned out to be 7.7 ± 0.2 °C.
Taken in the same sequence, the figures for `COc1ccc2[nH]cc(CC(=O)N[C@@H](Cc3ccccc3)c3ncccc3-c3ccc(Cl)cc3)c2c1` [Example 55, (S)-2-(5-methoxy-1H-indol-3-yl)-N-(2-phenyl-1-(3-(4-chlorophenyl)pyridin-2-yl)ethyl)acetamide] were 1.4 ± 0.7 µM and 7.8 ± 0.3 °C.
The corresponding values for `O=C(Cc1c[nH]c2ccc(O)cc12)N[C@@H](Cc1ccccc1)c1ncccc1-c1ccc(Cl)cc1` [Example 56, (S)-2-(5-hydroxy-1H-indol-3-yl)-N-(2-phenyl-1-(3-(4-chlorophenyl)pyridin-2-yl)ethyl)acetamide] are 0.31 ± 0.07 µM and 8.7 ± 0.3 °C.
Taken in the same sequence, the figures for `CCn1cc(CC(=O)N[C@@H](Cc2ccccc2)c2ncccc2-c2ccc(Cl)cc2)c2ccccc21` [Example 57, (S)-2-(1-ethyl-1H-indol-3-yl)-N-(2-phenyl-1-(3-(4-chlorophenyl)pyridin-2-yl)ethyl)acetamide] were 2.7 ± 0.2 µM and 6.6 ± 0.2 °C.
`CCn1cc(CC(=O)N[C@@H](Cc2ccccc2)c2ncccc2-c2ccc(Cl)cc2)c2cc(OC)ccc21` [Example 58, (S)-2-(1-ethyl-5-methoxy-1H-indol-3-yl)-N-(2-phenyl-1-(3-(4-chlorophenyl)pyridin-2-yl)ethyl)acetamide] showed an EC50 with HIV-1 of 3.6 ± 0.2 µM. Also, the “TSA ΔTm (° C.)” value in series [2] turned out to be 5.9 ± 0.2 °C.
In turn, `COc1ccc2[nH]cc(CC(=O)N[C@@H](Cc3ccccc3)c3ncccc3-c3ccc(Br)cc3)c2c1` [Example 59, (S)-2-(5-methoxy-1H-indol-3-yl)-N-(2-phenyl-1-(3-(4-bromophenyl)pyridin-2-yl)ethyl)acetamide] displayed an EC50 with HIV-1 of 2.1 ± 0.8 µM. Also, in series [2], the “TSA ΔTm (° C.)” value came to 6.3 ± 0.6 °C.
Taken in the same sequence, the figures for `CCn1cc(CC(=O)N[C@@H](Cc2ccccc2)c2ncccc2-c2ccc(Br)cc2)c2ccccc21` [Example 60, (S)-2-(1-ethyl-1H-indol-3-yl)-N-(2-phenyl-1-(3-(4-bromophenyl)pyridin-2-yl)ethyl)acetamide] were 3.2 ± 0.3 µM and 6.3 ± 0.1 °C.
Taken in the same sequence, the figures for `COc1ccc2[nH]cc(CC(=O)N[C@@H](Cc3ccccc3)c3nccn3-c3ccc(Cl)cc3)c2c1` [Example 61, (S)-2-(5-methoxy-1H-indol-3-yl)-N-(2-phenyl-1-(1-(4-chlorophenyl)-1H-imidazol-2-yl)ethyl)acetamide] were 3.3 ± 0.03 µM and 4.0 ± 0.3 °C.
The corresponding values for `COc1ccc2[nH]cc(CC(=O)N[C@@H](Cc3ccccc3)c3nccn3-c3ccc(Br)cc3)c2c1` [Example 62, (S)-2-(5-methoxy-1H-indol-3-yl)-N-(2-phenyl-1-(1-(4-bromophenyl)-1H-imidazol-2-yl)ethyl)acetamide] are 3.5 ± 0.3 µM and 2.8 ± 0.3 °C.
`COc1ccc2[nH]cc(CC(=O)N[C@@H](Cc3ccccc3)c3nccn3-c3ccc(I)cc3)c2c1` [Example 63, (S)-2-(5-methoxy-1H-indol-3-yl)-N-(2-phenyl-1-(1-(4-iodophenyl)-1H-imidazol-2-yl)ethyl)acetamide] had an EC50 in the series with HIV-1 of 3.3 ± 0.2 µM. Also, the “TSA ΔTm (° C.)” value in series [2] was 2.7 ± 0.1 °C.
